Measurements from patent publication US12551464B2, “N-(3-amino-3-oxopropyl)-2-[(1-methyl-4-nitro-1H-imidazol-5-yl)thio]benzamide and its use for treating HIV infection” (The United States of America, as represented by the …, priority 2019, dated 2026).
Where “and” joins values, the source holds several entries; their conditions need not be identical. Equal values may be shown once. Read-outs that look alike come from different tables or passages of the source.

Columns and labels:
[1] = Toxicity of metabolite, method not described
[2] = tested on: simian immunodeficiency virus (SIV); assay: Viral load by RT-PCR in SIV-infected rhesus macaques; format: in vivo
Protocol: (§1) Two SIV-infected rhesus macaques were treated with 300 mg/kg of the compound of formula (I) once daily via oral gavage. Viral load before treatment and after 6 months of treatment were measured by RT-PCR. Viral infectivity was determined by measuring the amount of p27 Gag (in pg/mL) in a viral infectivity assay wherein virus isolated from the animals was used to infect CEMx174 cells, followed by ELISA. Viral samples were diluted 1:1000 prior to assay. The CD4 count for each monkey was measured after 6 months.

[3] = tested on: simian immunodeficiency virus (SIV); assay: Viral infectivity assay: virus isolated from the animals used to infect CEMx174 cells, p27 Gag ELISA; format: in vivo, rhesus macaques
Protocol: as §1

[4] = CD4 count in SIV-infected rhesus macaques; format: in vivo
Protocol: as §1

[5] = Maximum tolerated dose and dose range finding study in rats; format: in vivo
Protocol: The maximum tolerated dose in rats of the compound of formula (I) was determined to be greater than 2 g/day.

[6] = Pharmacokinetics in cynomolgus macaques; format: in vivo; conditions: 300 mg/kg p.o. oral gavage
Protocol: The compound of formula (I) was administered to cynomolgus macaques at a dose of 300 mg/kg p.o. via oral gavage.

[7] = tested on: CXCR4 Tropic Clade B HIV-192HT599; assay: Anti-HIV activity in human PBMCs, reverse transcriptase in culture supernatants; format: cell-based; conditions: PBMC, 7 days in culture
Protocol: (§2) PHA-P stimulated PBMCs from three donors were pooled together and resuspended in fresh tissue culture medium at 1×10^6 cells/mL and plated in the interior wells of a 96 well round bottom microplate at 50 μL/well. A 100 μL volume of 9 concentrations of the compound serially diluted were transferred to the round bottom 96 well plate containing the cells in triplicate. 50 μL of HIV-1 at a predetermined dilution was added. Each plate contained cell control wells and virus control wells in parallel with the experimental wells. After 7 days in culture, efficacy was evaluated by measuring the reverse transcriptase in the culture supernatants and the cells were stained with the tetrazolium dye XTT to evaluate cytotoxicity.

[8] = Cytotoxicity in human PBMCs, XTT staining; format: cell-based; conditions: human, PHA-P stimulated PBMCs pooled from three donors; Incubation Time 0 hours; 7 days in culture; read-out: TC50
Protocol: as §2

[9] = tested on: PBMCs; assay: Cytotoxicity in human PBMCs, XTT staining; format: cell-based; conditions: 7 days in culture, read-out: TC50 (the source's name)
Protocol: as §2

SMILES | toxicity [1] | Treated Viral Load ([2]; 300 mg/kg once daily oral gavage, after 6 months of treatment, RT-PCR) | reduction in viral load ([2]; 300 mg/kg p.o. daily over 6 months, versus before treatment) | Treated Viral Infectivity (p27 Gag) ([3]; 300 mg/kg once daily oral gavage, 6 months, viral samples diluted 1:1000, CEMx174 cells, ELISA) [pg/mL] | viral infectivity of SIV from treated animals compared with before treatment ([3]; 300 mg/kg p.o. daily over 6 months) | Treated CD4 Count ([4]; 300 mg/kg once daily oral gavage, after 6 months) | CD4 counts, assessment ([4]; after 6 months of 300 mg/kg p.o. daily) | adverse clinical outcomes in dose range finding study ([5]; 2 g/kg p.o., once per day for 14 days) | MTD at 14 days ([5]; rat, in vivo, oral, 2 g/kg) [mg/kg/day] | metabolism in blood [6] | AUC ([6]; cynomolgus monkey, blood) [ng·h/mL] | half-life ([6]; cynomolgus monkey, blood) [h] | EC50 ([7]; Incubation Time 0 hours) [µM] | EC50 ([7]; Incubation Time 2 hours) [µM] | EC50 ([7]; Incubation Time 8 hours) [µM] | EC50 ([7]; Incubation Time 24 hours) [µM] | CC50 at 7 days [8] [µM] | CC50 ([9]; Incubation Time 2 hours) [µM] | CC50 ([9]; Incubation Time 8 hours) [µM] | CC50 ([9]; Incubation Time 24 hours) [µM]
CSc1ccccc1C(=O)NCCC(N)=O [Compound 3] | non-toxic |  |  |  |  |  |  |  |  |  |  |  |  |  |  |  |  |  |  | 
Cn1cnc([N+](=O)[O-])c1Sc1ccccc1C(=O)NCCC(N)=O [compound of formula (I), N-(3-amino-3-oxopropyl)-2-[(1-methyl-4-nitro-1H-imidazol-5-yl)thio]benzamide] |  | 2.86 × 10^4 and 1.73 × 10^3 | approximately one | <0.1 | significantly decreased | 365 and 363 | deemed normal | did not show adverse clinical outcomes | > 2000 | converted to two major metabolites | 5780 | 7.6 | 3.23 | 7.12 | 5.18 | 4.45 | > 100 | > 100 | > 100 | > 100
